# Laboratory results published in patent publication US8431565B2 (priority 2007, dated 2013).
# Tests used:
# Male ICR mice = assay: Inhibition of acetic acid-induced writhing; assay type: in vivo, mouse; conditions: subcutaneous 3, 10 and 30 mg/kg, FIG. 2
# Excerpt: 12: 525-562; Ramabadran and Bansinath (1986) Pharm. Res. 3: 263-270]. Intraperitoneal administration of dilute acetic acid solution causes a writhing behavior in mice. A writhe is defined as a contraction of the abdominal muscles accompanied by an extension of the forelimbs and elongation of the body. The number of writhes observed in the presence and absence of test compounds is counted to determine the analgesic activity of the compounds.
# Male ICR mice, 20-40 grams in weight, were weighed and placed in individual observation chambers (usually a 4000 ml beaker) with a fine layer of rodent bedding at the bottom. To determine the activity and potency of test compounds, different doses of the compound solution or vehicle were injected subcutaneously in the back of the neck 30 minutes prior to administration of acetic acid solution. After administration of the compound or vehicle control, mice were returned to their individual observation chambers awaiting the intraperitoneal administration of acetic acid solution. Thirty minutes later, 10 ml/kg of a 0.6% (v/v) acetic acid solution was then injected into the right lower quadrant of the abdomen. […] The number of writhes was counted over a 15-min period starting from the time of acetic acid injection. Raw data were analyzed using a one-way ANOVA followed by Dunnett's post-tests. […]
# rats [1] = assay: Carrageenan model of acute inflammation; assay type: in vivo; conditions: rat
# rats [2] = assay: Spinal nerve ligation (SNL) model of neuropathic pain; assay type: in vivo; conditions: rat; oral 3, 10 and 30 mg/kg; FIG. 4
# Experimental: The SNL model (Kim and Chung 1992) was used to induce chronic neuropathic pain in rats. The rats were anesthetized with isoflurane, the left L5 transverse process was removed, and the L5 and L6 spinal nerves were tightly ligated with 6-0 silk suture. The wound was then closed with internal sutures and external staples. Following at least seven days post SNL, baseline, post-injury and post-treatment values for non-noxious mechanical sensitivity were evaluated using eight Semmes-Weinstein filaments (Stoelting, Wood Dale, Ill., USA) with varying stiffness (0.4, 0.7, 1.2, 2.0, 3.6, 5.5, 8.5, and 15 g) according to the up-down method (Chaplan et al. 1994). Animals were placed on a perforated metallic platform and allowed to acclimate to their surroundings for a minimum of thirty minutes before testing. The mean and standard error of the mean (SEM) were determined for the injured paw in each treatment group. Since this stimulus is normally not considered painful, significant injury-induced increases in responsiveness in this test are interpreted as a measure of mechanical allodynia. The dose which elicited 50% attenuation of mechanical hypersensitivity (ED50) was determined using linear regression analysis. Results obtained after oral administration of compound 317 at 3, 10 and 30 mg/kg and with compound 366 at 1, 3 and 10 mg/kg are shown in FIG. 4.
# Male Sprague-Dawley rats = assay: Complete Freund's Adjuvant (CFA) model of inflammatory pain, Randall-Selitto paw pressure; assay type: in vivo; conditions: rat, intraperitoneal
# Experimental: Male Sprague-Dawley rats (Hsd:Sprague-Dawley®™ SD®™, Harlan, Indianapolis, Ind.) weighing 201±1 grams, were housed three per cage. Animals had free access to food and water and were maintained on a twelve hour light/dark schedule for the entire duration of the experiment. Approximately 12 hours prior to behavioral testing, animals were placed on wire mesh bottom cages with free access to water but no access to food. Test compounds were prepared in 50% PEG-400 (Sigma-Aldrich, cat. P3265). Indomethacin (Fluka, cat 57413) was suspended in 0.5% methylcellulose (Sigma-Aldrich, cat. 274429). Groups of eight animals were anesthetized with 2-3% isoflurane and local inflammation induced by 50 μl CFA (Sigma-Aldrich, cat F5881, Mycobacterium tuberculosis 1 mg/ml) injected subcutaneously into the plantar surface of the left paw.
# Assessment of mechanical hyperalgesia: Baseline and post-treatment withdrawal thresholds to a noxious mechanical stimulus were measured using the Randall-Selitto paw pressure apparatus (Ugo Basile Analgesymeter, model 7200). […] Mechanical hyperalgesia was measured using the Randall-Selitto paw pressure device before CFA injection and after intraperitoneal (i.p.) compound administration over a twenty-four-hour period. The mean and standard error of the mean (SEM) were determined for the injured and normal paws for each treatment group.
# rat CB2 receptor (rCB2) = biological target: T1, rat CB2 receptor (rCB2) (Rattus norvegicus, UniProt Q9QZN9)
# T1 sequence (Q9QZN9 1-360): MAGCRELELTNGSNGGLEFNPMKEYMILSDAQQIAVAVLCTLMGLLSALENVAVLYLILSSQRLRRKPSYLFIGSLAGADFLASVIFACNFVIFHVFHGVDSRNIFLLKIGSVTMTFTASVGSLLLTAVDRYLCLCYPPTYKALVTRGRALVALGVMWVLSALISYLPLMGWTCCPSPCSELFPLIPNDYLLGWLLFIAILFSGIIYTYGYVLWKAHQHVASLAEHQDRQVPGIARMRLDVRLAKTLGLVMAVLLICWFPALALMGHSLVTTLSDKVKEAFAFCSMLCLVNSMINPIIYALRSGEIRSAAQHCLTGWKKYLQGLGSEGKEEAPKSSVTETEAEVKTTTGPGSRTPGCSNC
# [3] = biological target: human CB1 receptor (hCB1) (Homo sapiens, UniProt P21554); assay type: cell-based
# Chain of human CB1 receptor (hCB1) (P21554 whole entry): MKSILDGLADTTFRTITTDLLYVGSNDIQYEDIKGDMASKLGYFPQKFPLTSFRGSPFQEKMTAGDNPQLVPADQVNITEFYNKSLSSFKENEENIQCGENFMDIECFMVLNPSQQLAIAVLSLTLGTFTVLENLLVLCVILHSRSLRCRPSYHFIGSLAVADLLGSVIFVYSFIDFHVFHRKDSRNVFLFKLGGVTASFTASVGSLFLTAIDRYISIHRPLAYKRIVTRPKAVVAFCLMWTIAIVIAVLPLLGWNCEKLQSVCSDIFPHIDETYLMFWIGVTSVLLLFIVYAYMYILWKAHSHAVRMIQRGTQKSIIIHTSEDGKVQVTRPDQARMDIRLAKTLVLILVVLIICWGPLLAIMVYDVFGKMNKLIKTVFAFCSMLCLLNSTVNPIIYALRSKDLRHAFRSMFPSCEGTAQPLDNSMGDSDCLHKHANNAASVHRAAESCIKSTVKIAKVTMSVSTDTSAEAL
smiles,measurement,setting,value
"CNC(=O)[C@@H](NC(=O)c1nc(-c2ccc(Cl)cc2F)n2c1CN(C)CCC2)C(C)(C)C [Compound 366, (S)-3-(4-chloro-2-fluorophenyl)-N-(3,3-dimethyl-1-(methylamino)-1-oxobutan-2-yl)-8-methyl-6,7,8,9-tetrahydro-5H-imidazo[1,5-a][1,4]diazepine-1-carboxamide]",inhibition of acetic acid-induced writhing,Male ICR mice,dose response in the inhibition of acetic acid-induced writhing
same,inhibition of carrageenan-induced hyper-sensitivity,"rats [1]; oral 1, 3 and 10 mg/kg, FIG. 3B",dose response in the inhibition of carrageenan-induced hyper-sensitivity
same,response in the neuropathic pain model,rats [2],dose response in the neuropathic pain model
"CNC(=O)[C@@H](NC(=O)c1nc(-c2ccccc2)n2c1CN(C)CCC2)C(C)(C)C [Compound 317, (S)—N-(3,3-dimethyl-1-(methylamino)-1-oxobutan-2-yl)-8-methyl-3-phenyl-6,7,8,9-tetrahydro-5H-imidazo[1,5-a][1,4]diazepine-1-carboxamide]",inhibition of acetic acid-induced writhing,Male ICR mice,dose response in the inhibition of acetic acid-induced writhing
same,inhibition of carrageenan-induced hyper-sensitivity,"rats [1]; sub-cutaneous 3, 10 and 30 mg/kg, FIG. 3A",dose response in the inhibition of carrageenan-induced hyper-sensitivity
same,response in the neuropathic pain model,rats [2],dose response in the neuropathic pain model
"CCS(=O)(=O)N1CCn2c(-c3ccccc3)nc(C(=O)N[C@H](C(=O)NC)C(C)(C)C)c2C1 [Compound 91, (S)—N-(3,3-dimethyl-1-(methylamino)-1-oxobutan-2-yl)-7-(ethylsulfonyl)-3-phenyl-5,6,7,8-tetrahydroimidazo[1,5-a]pyrazine-1-carboxamide]",side effects during the experiment,Male Sprague-Dawley rats; CFA experiment,No side effects were observed
same,effect on paw withdrawal threshold after intrapaw CFA,"Male Sprague-Dawley rats; vs vehicle over twenty-four hours, FIG. 1",anti-hyperalgesic effect
same,EC50,rat CB2 receptor (rCB2),0.01 to 0.1 µM
"CNC(=O)[C@@H](NC(=O)c1nc(-c2ccc3c(c2)OCCO3)n2c1CN(C)CCC2)C(C)(C)C [Compound 326, (S)-3-(2,3-dihydrobenzo[b][1,4]dioxin-6-yl)-N-(3,3-dimethyl-1-(methylamino)-1-oxobutan-2-yl)-8-methyl-6,7,8,9-tetrahydro-5H-imidazo[1,5-a][1,4]diazepine-1-carboxamide]",EC50,[3],> 10 µM
same,EC50,rat CB2 receptor (rCB2),0.01 to 0.1 µM
"CNC(=O)[C@@H](NC(=O)c1nc(-c2ccc(C(C)=O)s2)n2c1CN(C)CCC2)C(C)(C)C [Compound 704, (S)-3-(5-acetylthiophen-2-yl)-N-(3,3-dimethyl-1-(methylamino)-1-oxobutan-2-yl)-8-methyl-6,7,8,9-tetrahydro-5H-imidazo[1,5-a][1,4]diazepine-1-carboxamide]",EC50,[3],> 10 µM
"CNC(=O)[C@@H](NC(=O)c1nc(C2CCN(C(=O)c3ccccc3)CC2)n2c1CN(C)CCC2)C(C)(C)C [Compound 726, (S)-3-(1-benzoylpiperidin-4-yl)-N-(3,3-dimethyl-1-(methylamino)-1-oxobutan-2-yl)-8-methyl-6,7,8,9-tetrahydro-5H-imidazo[1,5-a][1,4]diazepine-1-carboxamide]",EC50,[3],> 10 µM
"CC1CN(C(=O)c2nc(-c3cc(F)c(F)cc3F)n3c2CN(C)CCC3)CC(C)O1 (centres unmarked) [Compound 854, (2,6-dimethylmorpholino)(8-methyl-3-(2,4,5-trifluorophenyl)-6,7,8,9-tetrahydro-5H-imidazo[1,5-a][1,4]diazepin-1-yl)methanone]",EC50,[3],> 10 µM
"CN1CCCn2c(-c3cc(Cl)c(F)cc3F)nc(C(=O)N3CC(F)(F)C3)c2C1 [Compound 823, (3-(5-chloro-2,4-difluorophenyl)-8-methyl-6,7,8,9-tetrahydro-5H-imidazo[1,5-a][1,4]diazepin-1-yl)(3,3-difluoroazetidin-1-yl)methanone]",EC50,[3],> 10 µM
"CNC(=O)[C@@H](NC(=O)c1nc(-c2cnn(S(=O)(=O)c3ccccc3)c2)n2c1CN(C)CCC2)C(C)(C)C [Compound 776, (S)-N-(3,3-dimethyl-1-(methylamino)-1-oxobutan-2-yl)-8-methyl-3-(1-(phenylsulfonyl)-1H-pyrazol-4-yl)-6,7,8,9-tetrahydro-5H-imidazo[1,5-a][1,4]diazepine-1-carboxamide]",EC50,[3],> 10 µM
"CNC(=O)[C@@H](NC(=O)c1nc(-c2cc(F)c(F)cc2F)n2c1CN(c1cncc(Cl)n1)CCC2)C(C)(C)C [Compound 718, (S)-8-(6-chloropyrazin-2-yl)-N-(3,3-dimethyl-1-(methylamino)-1-oxobutan-2-yl)-3-(2,4,5-trifluorophenyl)-6,7,8,9-tetrahydro-5H-imidazo[1,5-a][1,4]diazepine-1-carboxamide]",EC50,[3],> 10 µM
"CN1CCn2c(-c3ccc(Cl)cc3F)nc(C(=O)N3CCC4(CCNC4=O)CC3)c2C1 [Compound 220, 8-(3-(4-chloro-2-fluorophenyl)-7-methyl-5,6,7,8-tetrahydroimidazo[1,5-a]pyrazine-1-carbonyl)-2,8-diazaspiro[4.5]decan-1-one]",EC50,[3],> 10 µM
same,EC50,rat CB2 receptor (rCB2),> 10 µM
"CNC(=O)[C@@H](NC(=O)c1nc(-c2ccc(C(F)(F)F)cc2C)n2c1CN(C)CCC2)C(C)(C)C [Compound 632, (S)-N-(3,3-dimethyl-1-(methylamino)-1-oxobutan-2-yl)-8-methyl-3-(2-methyl-4-(trifluoromethyl)phenyl)-6,7,8,9-tetrahydro-5H-imidazo[1,5-a][1,4]diazepine-1-carboxamide]",EC50,[3],> 10 µM
